Activity calls are given as the source filed them. No cut-off for these calls is given here.

Experiment [1] is described as follows: Inhibition of gamma secretase-mediated notch processing in C57BL/6 mouse fetal thymic organ cultures assessed as reduction of B and T-cell populations after […] by FACS analysis. Background: Flow cytometry measures light scatter and fluorescence of single cells or particles in a stream.
The test system of experiment [2] is Cavia porcellus. As to the kind of experiment: Antialzheimer activity in guinea pig assessed as reduction of total amyloid beta level in brain at 10 mg/kg, sc after 3 hrs by DELFIA-based ELISA. It is filed as functional.
Experiment [3] concerns Cavia porcellus. The experiment can be described thus: Antialzheimer activity in guinea pig assessed as reduction of total amyloid beta level in plasma at 3.2 mg/kg, sc after 3 hrs by DELFIA-based ELISA. It is filed as functional, organism-based. Also noted: dose 3.2 mg/kg. A general note: ELISA stands for enzyme-linked immunosorbent assay.
Experiment [4] has as its system Cavia porcellus. As to the kind of experiment: Antialzheimer activity in guinea pig assessed as reduction of total amyloid beta level in plasma at 1 to 32 mg/kg, sc after 3 to 7 hrs by DELFIA-based ELISA. It is filed as functional, organism-based.
Experiment [5] relates to Cavia porcellus. The experiment can be described thus: Antialzheimer activity in sc dosed guinea pig assessed as reduction of total amyloid beta level in brain after 3 hrs by DELFIA-based ELISA. It is filed as functional.
Experiment [6] has as its system Cavia porcellus. The experiment can be described thus: Antialzheimer activity in guinea pig assessed as reduction of total amyloid beta level in brain at 1 to 32 mg/kg, sc after 3 to 7 hrs by DELFIA-based ELISA. It is filed as functional, organism-based.
In experiment [7] the test system is Cavia porcellus. The experiment can be described thus: Antialzheimer activity in guinea pig assessed as reduction of total amyloid beta level in plasma at 1 to 32 mg/kg, sc after 1 hr by DELFIA-based ELISA. The format is functional, organism-based.
Experiment [8] deals with Cavia porcellus. The experiment can be described thus: Antialzheimer activity in guinea pig assessed as reduction of total amyloid beta level in plasma at 1 to 32 mg/kg, sc after 3 hrs by DELFIA-based ELISA. It is filed as functional. Further details: scale not given: the % may be the effect or the level left. The following applies: dose mg/kg 1-32; route subcutaneous.
Experiment [9] concerns Cavia porcellus. The experiment can be described thus: Antialzheimer activity in guinea pig assessed as reduction of total amyloid beta level in brain at 5 mg/kg, sc administered 3 doses over 24 hrs measured after 3 hrs last post dose by DELFIA-based ELISA. Particulars: route subcutaneous. The format is functional. Further details: scale not given: the % may be the effect or the level left.

Experiment [10] concerns Cavia porcellus. As to the kind of experiment: Antialzheimer activity in guinea pig assessed as reduction of total amyloid beta level in brain at 1 to 32 mg/kg, sc after 1 hr by DELFIA-based ELISA. It is filed as functional, organism-based.
In experiment [11] the test system is Cavia porcellus. The experiment can be described thus: Antialzheimer activity in guinea pig assessed as reduction of total amyloid beta level in cerebral spinal fluid at 1 to 32 mg/kg, sc after 3 to 7 hrs by DELFIA-based ELISA. The format is functional, organism-based.
Experiment [12] can be described thus: Inhibition of gamma-secretase in guinea pig brain. Further details: species or system Cavia porcellus.
Experiment [13] deals with Cavia porcellus. As to the kind of experiment: Antialzheimer activity in guinea pig assessed as reduction of total amyloid beta level in cerebral spinal fluid at 1 to 32 mg/kg, sc after 1 hr by DELFIA-based ELISA. The format is functional, organism-based.
Experiment [14] is filed under the species Mus musculus. As to the kind of experiment: Antialzheimer activity in heterozygous PDAPP transgenic mouse overexpressing APP V717F mutant assessed as reduction of total amyloid beta level in brain. The format is functional. The following applies: read-out: MED.

`CCC[C@H](NC(=O)Cc1cc(F)cc(F)c1)C(=O)Nc1cn(C(C)(C)CNCC2CCOCC2)cn1`: the EC50 in experiment [1] was 4000 nM.

In the case of `CCC[C@H](NC(=O)Cc1cc(F)cc(F)c1)C(=O)Nc1cn(C(C)(C)CNCc2ccccc2)cn1`, the EC50 in [1] turned out to be 4300 nM.

In the case of `CCC[C@H](NC(=O)Cc1cc(F)cc(F)c1)C(=O)Nc1cn(C(C)(C)CN2CCOCC2)cn1`, the EC50 in experiment [1] is 100 nM.

For the molecule `CCC[C@H](NC(=O)Cc1cc(F)cc(F)c1)C(=O)Nc1cn(C(C)(C)CN(C)C)cn1`, the EC50 in experiment [1] came out at 700 nM.

Regarding `CCC[C@H](NC(=O)Cc1cc(F)cc(F)c1)C(=O)Nc1cn(C(C)(C)CNC2CCC(O)CC2)cn1` (some centres undefined), the EC50 in experiment [1] was greater than 10000 nM.

As to `C[C@H](NC(=O)Cc1cc(F)cc(F)c1)C(=O)Nc1cn(C(C)(C)CN2CCCC2)cn1`, in experiment [2], the outcome was inactive.

Consider `CCC[C@H](NC(=O)Cc1cc(F)cc(F)c1)C(=O)Nc1cn(C(C)(C)CN2CCCC2)cn1`, for which the Activity in [2] (route subcutaneous) came to 43%.

With `CC(C)C[C@H](NC(=O)Cc1cc(F)cc(F)c1)C(=O)Nc1cn(C(C)(C)CN2CCCC2)cn1`, in experiment [2], the outcome was inactive.

As for `CCC[C@H](NC(=O)Cc1cc(F)cc(F)c1)C(=O)Nc1cn(C(C)(C)CC(=O)OC)cn1`, the Activity in [2] (route subcutaneous) came out at 32%.

For the molecule `CCC[C@H](NC(=O)Cc1cc(F)cc(F)c1)C(=O)Nc1cn(C(C)(C)CNCC(C)(C)C)cn1`, the outcome in experiment [3], in experiment [4], in [6], in experiment [7], in [10] and in experiment [11] was Active. For the same molecule, in experiment [5], the ED50 came out at 7.3 mg/kg. For the same molecule, the EC50 in experiment [1] was 1200 nM. In addition, the figures for the Activity in [8] and in experiment [9] were 60% and 50%, respectively. For the same molecule, in [12], half-maximal inhibition (IC50) was put at 24 nM. For the same molecule, the outcome in experiment [13] was inactive.

For `CCC[C@H](NC(=O)Cc1cc(F)cc(F)c1)C(=O)Nc1cn(C(CC)CC)cn1`, the Activity in experiment [2] (route subcutaneous) is less than 10%.

As to `C[C@H](NC(=O)Cc1cc(F)cc(F)c1)C(=O)N[C@H](C(=O)OC(C)(C)C)c1ccccc1`, in experiment [14], the minimal effective dose was 30 mg/kg.

`CCC[C@H](NC(=O)Cc1cc(F)cc(F)c1)C(=O)Nc1cn(C(C)(C)CNC(C)C)cn1`: in experiment [1], the EC50 was greater than 10000 nM.

The term EC50 denotes the midpoint of the concentration-response curve. By ED50 is commonly meant the dose at which the effect has come halfway, by size or by number of responders. What is called IC50 is the concentration that inhibits the measured activity by half.

The values above are taken from ChEMBL document CHEMBL1770080, “Diamide amino-imidazoles: a novel series of γ-secretase inhibitors for the treatment of Alzheimer's disease” (Bioorg Med Chem Lett, 2011).
